According to US9988635B2, “Modulation of growth hormone receptor expression and insulin-like growth factor expression” (Antisense Therapeutics Limited, priority 2003, dated 2018):
In the oligonucleotide strings, read from the 5' end, every base follows the letter of its sugar. An asterisk marks phosphorothioate; unmarked linkages are phosphodiester. Other units and linkages are bracketed, terminal groups are in braces. A string of capitals states the bases alone. e = 2'-O-(2-methoxyethyl) (MOE); [5mC] = 5-methylcytosine; d = 2'-deoxy (DNA)

What follows are substances tested on mouse growth hormone receptor mRNA (assay: Inhibition of mouse growth hormone receptor mRNA levels in b.END cells, quantitative real-time PCR, incl. dose-response). Details: averages from three experiments.
Format: cell-based
Description: The mouse brain endothelial cell line b.END was obtained from Dr. Werner Risau at the Max Plank Instititute (Bad Nauheim, Germany). b.END cells were routinely cultured in DMEM, high glucose (Gibco/Life Technologies, Gaithersburg, Md.) supplemented with 10% fetal calf serum (Gibco/Life Technologies, Gaithersburg, Md.). Cells were routinely passaged by trypsinization and dilution when they reached 90% confluence. Cells were seeded into 96-well plates (Falcon-Primaria #3872) at a density of 3000 cells/well for use in RT-PCR analysis.
When cells reached 65-75% confluency, they were treated with oligonucleotide. For cells grown in 96-well plates, wells were washed once with 100 μL OPTI-MEM™-1 reduced-serum medium (Invitrogen Corporation, Carlsbad, Calif.) and then treated with 130 μL of OPTI-MEM™-1 containing 3.75 μg/mL LIPOFECTIN™ (Invitrogen Corporation, Carlsbad, Calif.) and the desired concentration of oligonucleotide. Cells are treated and data are obtained in triplicate. After 4-7 hours of treatment at 37° C., the medium was replaced with fresh medium. Cells were harvested 16-24 hours after oligonucleotide treatment.
Total RNA was isolated using an RNEASY 96™ kit and buffers purchased from Qiagen Inc. (Valencia, Calif.) following the manufacturer's recommended procedures. Briefly, for cells grown on 96-well plates, growth medium was removed from the cells and each well was washed with 200 μL cold PBS. 150 μL Buffer RLT was added to each well and the plate vigorously agitated for 20 seconds. 150 μL of 70% ethanol was then added to each well and the contents mixed by pipetting three times up and down. The samples were then transferred to the RNEASY 96™ well plate attached to a QIAVAC™ manifold fitted with a waste collection tray and attached to a vacuum source. Vacuum was applied for 1 minute. 500 μL of Buffer RW1 was added to each well of the RNEASY 96™ plate and incubated for 15 minutes and the vacuum was again applied for 1 minute. An additional 500 μL of Buffer RW1 was added to each well of the RNEASY 96™ plate and the vacuum was applied for 2 minutes. 1 mL of Buffer RPE was then added to each well of the RNEASY 96™ plate and the vacuum applied for a period of 90 seconds. The Buffer RPE wash was then repeated and the vacuum was applied for an additional 3 minutes. The plate was then removed from the QIAVAC™ manifold and blotted dry on paper towels. The plate was then re-attached to the QIAVAC™ manifold fitted with a collection tube rack containing 1.2 mL collection tubes. RNA was then eluted by pipetting 140 μL of RNAse free water into each well, incubating 1 minute, and then applying the vacuum for 3 minutes.
Quantitation of growth hormone receptor mRNA levels was accomplished by real-time quantitative PCR using the ABI PRISM™ 7600, 7700, or 7900 Sequence Detection System (PE-Applied Biosystems, Foster City, Calif.) according to manufacturer's instructions. This is a closed-tube, non-gel-based, fluorescence detection system which allows high-throughput quantitation of polymerase chain reaction (PCR) products in real-time. As opposed to standard PCR in which amplification products are quantitated after the PCR is completed, products in real-time quantitative PCR are quantitated as they accumulate. This is accomplished by including in the PCR reaction an oligonucleotide probe that anneals specifically between the forward and reverse PCR primers, and contains two fluorescent dyes. A reporter dye (e.g., FAM or JOE, obtained from either PE-Applied Biosystems, Foster City, Calif., Operon Technologies Inc., Alameda, Calif. or Integrated DNA Technologies Inc., Coralville, Iowa) is attached to the 5′ end of the probe and a quencher dye (e.g., TAMRA, obtained from either PE-Applied Biosystems, Foster City, Calif., Operon Technologies Inc., Alameda, Calif. or Integrated DNA Technologies Inc., Coralville, Iowa) is attached to the 3′ end of the probe. […]

Row | Substance | % INHIB of mouse growth hormone receptor mRNA levels
1 | 227458 (antisense eG*eT*eA*e[5mC]*eT*dG*dA*dA*dT*dT*dT*d[5mC]*dA*dT*dA*e[5mC]*eT*e[5mC]*e[5mC]*eA) [compound 227458] | 75%
2 | 227459 (antisense e[5mC]*eT*eG*eA*eA*d[5mC]*dT*d[5mC]*dG*d[5mC]*dT*dG*dT*dA*d[5mC]*eT*eT*eT*eT*e[5mC]) [compound 227459] | 60%
3 | 227460 (antisense eA*eA*e[5mC]*eT*eG*dG*dA*dT*dA*dT*d[5mC]*dT*dT*d[5mC]*dT*eT*e[5mC]*eA*e[5mC]*eA) [compound 227460] | 43%
4 | 227461 (antisense eT*eG*e[5mC]*eT*eA*d[5mC]*dT*d[5mC]*d[5mC]*dA*dA*dA*dT*dA*dT*eT*e[5mC]*e[5mC]*eA*eA) [compound 227461] | 75%
5 | 227462 (antisense eG*e[5mC]*eT*eT*eT*dG*dA*dA*dA*dA*dT*dA*dT*dA*dA*e[5mC]*eT*eA*e[5mC]*eA) [compound 227462] | 31%
6 | 227463 (antisense eA*eT*e[5mC]*eA*eG*d[5mC]*dA*dT*d[5mC]*dT*dT*dA*dA*dT*d[5mC]*e[5mC]*eT*eT*eT*eG) [compound 227463] | 39%
7 | 227465 (antisense eT*eG*eA*eG*eA*dA*dG*dA*dT*d[5mC]*dT*dG*dG*dA*dT*e[5mC]*eA*eA*eT*e[5mC]) [compound 227465] | 51%
8 | 227466 (antisense eT*eT*eG*eT*eA*dG*dT*dT*dA*dT*d[5mC]*dA*dT*dG*dA*eA*eT*eG*e[5mC]*e[5mC]) [compound 227466] | 50%
9 | 227467 (antisense e[5mC]*eA*eT*e[5mC]*eA*dT*dT*dG*dT*dA*dG*dA*dA*dG*dT*e[5mC]*eG*eG*eG*eT) [compound 227467] | 33%
10 | 227470 (antisense e[5mC]*eT*e[5mC]*e[5mC]*eA*dA*dG*dG*dA*dT*dA*d[5mC]*d[5mC]*dA*dG*e[5mC]*eT*eG*eA*eT) [compound 227470] | 82%
11 | 227471 (antisense eA*eG*eG*e[5mC]*eA*d[5mC]*dA*dA*dG*dA*dG*dA*dT*d[5mC]*dA*eG*e[5mC]*eT*eT*e[5mC]) [compound 227471] | 52%
12 | 227472 (antisense eA*eG*eA*eG*e[5mC]*d[5mC]*dA*dA*dG*dG*dG*dA*dA*dG*d[5mC]*eA*eT*e[5mC]*eA*eT) [compound 227472] | 42%
13 | 227473 (antisense eA*eA*eG*eT*e[5mC]*dA*dA*dT*dG*dT*dT*dT*dG*d[5mC]*d[5mC]*eA*eG*eT*eG*eA) [compound 227473] | 71%
14 | 227474 (antisense eT*eG*eT*e[5mC]*eG*d[5mC]*dT*dT*dA*d[5mC]*dT*dT*dG*dG*dG*e[5mC]*eA*eT*eA*eA) [compound 227474] | 68%
15 | 227476 (antisense eG*eT*eA*eA*eT*dT*dT*dT*d[5mC]*dT*dT*dG*dG*d[5mC]*dA*eG*eG*eG*e[5mC]*eG) [compound 227476] | 41%
16 | 227477 (antisense e[5mC]*eA*e[5mC]*eT*eG*dT*dT*d[5mC]*dA*dT*dG*d[5mC]*dT*dG*dT*eA*eA*eT*eT*eT) [compound 227477] | 61%
17 | 227478 (antisense eT*eT*eT*eT*eT*dG*dG*d[5mC]*dA*dT*d[5mC]*dT*dG*dA*d[5mC]*eT*e[5mC]*eA*e[5mC]*eA) [compound 227478] | 68%
18 | 227479 (antisense eA*eT*eG*eT*e[5mC]*d[5mC]*dT*d[5mC]*dT*dT*dG*dG*dT*dT*dA*eA*eA*eG*e[5mC]*eT) [compound 227479] | 59%

Row | Substance | % INHIB of mouse growth hormone receptor mRNA levels
19 | 227485 (antisense e[5mC]*eG*eT*eG*eG*dT*dG*dT*dA*dG*dT*d[5mC]*dT*dG*dG*eG*eA*e[5mC]*eA*eG) [compound 227485] | 45%
20 | 227486 (antisense e[5mC]*eG*eG*eT*eG*dT*dG*dA*dA*d[5mC]*d[5mC]*dG*dT*dG*dG*eT*eG*eT*eA*eG) [compound 227486] | 39%
21 | 227487 (antisense eT*e[5mC]*eA*eG*eG*d[5mC]*dA*dA*dA*dG*dG*d[5mC]*dA*dA*dA*eG*e[5mC]*eA*eG*eT) [compound 227487] | 44%
22 | 227491 (antisense eT*eA*eG*eG*eA*dA*dA*dG*dG*d[5mC]*dT*dA*d[5mC]*dT*dG*e[5mC]*eA*eT*eG*eA) [compound 227491] | 65%
23 | 227492 (antisense eT*eA*eA*eA*eA*d[5mC]*dA*dT*dA*dG*dT*dT*dT*dT*dG*eG*eT*eT*eT*eA) [compound 227492] | 7%
24 | 227493 (antisense eT*e[5mC]*e[5mC]*e[5mC]*eA*dA*d[5mC]*dA*d[5mC]*dA*dG*dA*dT*dT*dT*eA*eA*eA*eA*e[5mC]) [compound 227493] | 51%
25 | 227494 (antisense e[5mC]*eA*eA*eA*eA*dG*d[5mC]*d[5mC]*dA*d[5mC]*d[5mC]*dT*dG*dA*dT*eT*eG*eT*eT*eT) [compound 227494] | 56%
26 | 227495 (antisense eT*e[5mC]*e[5mC]*eT*eG*dA*dA*d[5mC]*dT*dG*d[5mC]*dA*dA*dA*dA*eG*e[5mC]*e[5mC]*eA*e[5mC]) [compound 227495] | 47%
27 | 227496 (antisense eG*e[5mC]*eA*eT*eT*d[5mC]*dA*dA*dT*dT*dT*d[5mC]*d[5mC]*dT*dG*eA*eA*e[5mC]*eT*eG) [compound 227496] | 51%
28 | 227497 (antisense eT*eA*eA*eA*eT*dG*dT*dT*dT*dT*dG*d[5mC]*dA*dT*dA*eT*e[5mC]*e[5mC]*eA*eA) [compound 227497] | 77%
29 | 227498 (antisense eT*eT*eG*eT*eA*dA*dA*dA*dA*dT*d[5mC]*dT*dA*dA*d[5mC]*eT*eT*eG*eT*eT) [compound 227498] | 49%
30 | 227503 (antisense eT*eA*e[5mC]*e[5mC]*eT*dG*dA*dG*dA*d[5mC]*d[5mC]*d[5mC]*d[5mC]*dA*dG*eT*eT*e[5mC]*eA*eT) [compound 227503] | 24%
31 | 227504 (antisense eT*eA*e[5mC]*e[5mC]*eT*dG*dA*dG*dA*d[5mC]*d[5mC]*d[5mC]*d[5mC]*dG*d[5mC]*eG*e[5mC]*eA*eG*e[5mC]) [compound 227504] | 34%
32 | 227505 (antisense eT*eA*e[5mC]*e[5mC]*eT*dG*dA*dG*dA*d[5mC]*d[5mC]*d[5mC]*dA*d[5mC]*dA*eA*eG*e[5mC]*eG*eG) [compound 227505] | 39%
33 | 227506 (antisense e[5mC]*e[5mC]*eT*e[5mC]*e[5mC]*dA*dG*dT*dA*d[5mC]*d[5mC]*dT*d[5mC]*dG*dG*eA*eG*eT*eT*eT) [compound 227506] | 69%
34 | 227507 (antisense eG*eT*e[5mC]*e[5mC]*eT*dT*dG*d[5mC]*dT*d[5mC]*d[5mC]*dA*dG*dG*dT*eT*eA*eG*e[5mC]*eA) [compound 227507] | 89%
35 | 227508 (antisense eT*eT*e[5mC]*e[5mC]*eA*d[5mC]*dT*d[5mC]*dA*d[5mC]*d[5mC]*d[5mC]*d[5mC]*dA*dG*eT*eT*e[5mC]*eA*eT) [compound 227508] | 51%
